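Results reflect a 48-hour exposure of cells in 96-well plates to compound at five concentrations. GI50 is the concentration that inhibits growth by half. TGI is the concentration that stops growth completely.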
How the values were obtained:
Assay in all cases: growth of human tumour cells (NCI), 48 h
UO-31 renal = system: UO-31 renal
SN12C renal = system: SN12C renal
SK-OV-3 ovarian = system: SK-OV-3 ovarian
MALME-3M melanoma = system: MALME-3M melanoma
EKVX NSCLC = system: EKVX NSCLC
CAKI-1 renal = system: CAKI-1 renal
OVCAR-8 ovarian = system: OVCAR-8 ovarian
SW-620 colon = system: SW-620 colon
A498 renal = system: A498 renal
SK-MEL-28 melanoma = system: SK-MEL-28 melanoma
NCI-H226 lung = system: NCI-H226 lung
HOP-62 NSCLC = system: HOP-62 NSCLC
SF-268 CNS = system: SF-268 CNS
HCC-2998 colon = system: HCC-2998 colon
HCT-116 colon = system: HCT-116 colon
TK-10 renal = system: TK-10 renal
RXF 393 renal = system: RXF 393 renal
SNB-75 CNS = system: SNB-75 CNS
U251 CNS = system: U251 CNS
HOP-92 NSCLC = system: HOP-92 NSCLC
OVCAR-4 ovarian = system: OVCAR-4 ovarian
786-0 renal = system: 786-0 renal
MCF7 breast = system: MCF7 breast
NCI-H460 lung = system: NCI-H460 lung
OVCAR-3 ovarian = system: OVCAR-3 ovarian
M14 melanoma = system: M14 melanoma
SF-295 CNS = system: SF-295 CNS
A549 NSCLC = system: A549 NSCLC
ACHN renal = system: ACHN renal
PC-3 prostate = system: PC-3 prostate
RPMI-8226 leukemia = system: RPMI-8226 leukemia
SNB-19 CNS = system: SNB-19 CNS
BT-549 breast = system: BT-549 breast
UACC-257 melanoma = system: UACC-257 melanoma
DU-145 prostate = system: DU-145 prostate
HT29 colon = system: HT29 colon
IGROV1 ovarian = system: IGROV1 ovarian
CCRF-CEM leukemia = system: CCRF-CEM leukemia
NCI-H522 lung = system: NCI-H522 lung
SK-MEL-2 melanoma = system: SK-MEL-2 melanoma
HL-60(TB) leukemia = system: HL-60(TB) leukemia
SF-539 CNS = system: SF-539 CNS
SR leukemia = system: SR leukemia
SK-MEL-5 melanoma = system: SK-MEL-5 melanoma
KM12 colon = system: KM12 colon
NCI/ADR-RES ovarian = system: NCI/ADR-RES ovarian
HCT-15 colon = system: HCT-15 colon
HS 578T breast = system: HS 578T breast
COLO 205 colon = system: COLO 205 colon
OVCAR-5 ovarian = system: OVCAR-5 ovarian
MDA-MB-435 = system: MDA-MB-435
MOLT-4 leukemia = system: MOLT-4 leukemia
K-562 leukemia = system: K-562 leukemia

Cc1ccc2c(n1)C(=O)C(Cl)=C(Nc1cccc(C)c1C)C2=O
GI50 (UO-31 renal): 1460 nM
TGI (UO-31 renal): 2950 nM
GI50 (SN12C renal): 1670 nM
TGI (SN12C renal): 4350 nM
GI50 (SK-OV-3 ovarian): 1590 nM
TGI (SK-OV-3 ovarian): 3640 nM
GI50 (MALME-3M melanoma): 1830 nM
TGI (MALME-3M melanoma): 3300 nM
GI50 (EKVX NSCLC): 1580 nM
TGI (EKVX NSCLC): 3730 nM
GI50 (CAKI-1 renal): 1570 nM
TGI (CAKI-1 renal): 3120 nM
GI50 (OVCAR-8 ovarian): 2020 nM
TGI (OVCAR-8 ovarian): 7410 nM
GI50 (SW-620 colon): 2060 nM
TGI (SW-620 colon): 4820 nM
GI50 (A498 renal): 2230 nM
TGI (A498 renal): 5190 nM
GI50 (SK-MEL-28 melanoma): 1930 nM
TGI (SK-MEL-28 melanoma): 3700 nM
GI50 (NCI-H226 lung): 1940 nM
TGI (NCI-H226 lung): 4390 nM
GI50 (HOP-62 NSCLC): 1550 nM
TGI (HOP-62 NSCLC): 2960 nM
GI50 (SF-268 CNS): 1610 nM
TGI (SF-268 CNS): 3480 nM
GI50 (HCC-2998 colon): 1920 nM
TGI (HCC-2998 colon): 3770 nM
GI50 (HCT-116 colon): 871 nM
TGI (HCT-116 colon): 2600 nM
GI50 (TK-10 renal): 2470 nM
TGI (TK-10 renal): 4200 nM
GI50 (RXF 393 renal): 1520 nM
TGI (RXF 393 renal): 2880 nM
GI50 (SNB-75 CNS): 1460 nM
TGI (SNB-75 CNS): 2920 nM
GI50 (U251 CNS): 1550 nM
TGI (U251 CNS): 3080 nM
GI50 (HOP-92 NSCLC): 1980 nM
TGI (HOP-92 NSCLC): 3950 nM
GI50 (OVCAR-4 ovarian): 1140 nM
TGI (OVCAR-4 ovarian): 2420 nM
GI50 (786-0 renal): 1900 nM
TGI (786-0 renal): 4080 nM
GI50 (MCF7 breast): 1160 nM
TGI (MCF7 breast): 2950 nM
GI50 (NCI-H460 lung): 2250 nM
TGI (NCI-H460 lung): 5620 nM
GI50 (OVCAR-3 ovarian): 372 nM
TGI (OVCAR-3 ovarian): 1400 nM
GI50 (M14 melanoma): 1610 nM
TGI (M14 melanoma): 3190 nM
GI50 (SF-295 CNS): 1840 nM
TGI (SF-295 CNS): 3390 nM
GI50 (A549 NSCLC): 2150 nM
TGI (A549 NSCLC): 5000 nM
GI50 (ACHN renal): 1620 nM
TGI (ACHN renal): 3190 nM
GI50 (PC-3 prostate): 1430 nM
TGI (PC-3 prostate): 3480 nM
GI50 (RPMI-8226 leukemia): 1350 nM
TGI (RPMI-8226 leukemia): 4120 nM
GI50 (SNB-19 CNS): 1920 nM
TGI (SNB-19 CNS): 5080 nM
GI50 (BT-549 breast): 1580 nM
TGI (BT-549 breast): 3040 nM
GI50 (UACC-257 melanoma): 1440 nM
TGI (UACC-257 melanoma): 2800 nM
GI50 (DU-145 prostate): 1650 nM
TGI (DU-145 prostate): 3200 nM
GI50 (HT29 colon): 2680 nM
TGI (HT29 colon): 7160 nM
GI50 (IGROV1 ovarian): 1680 nM
TGI (IGROV1 ovarian): 3720 nM
GI50 (CCRF-CEM leukemia): 1250 nM
TGI (CCRF-CEM leukemia): 5220 nM
GI50 (NCI-H522 lung): 1960 nM
TGI (NCI-H522 lung): 4580 nM
GI50 (SK-MEL-2 melanoma): 1910 nM
TGI (SK-MEL-2 melanoma): 3840 nM
GI50 (HL-60(TB) leukemia): 1150 nM
TGI (HL-60(TB) leukemia): 3490 nM
GI50 (SF-539 CNS): 1670 nM
TGI (SF-539 CNS): 3160 nM
GI50 (SR leukemia): 600 nM
TGI (SR leukemia): 3210 nM
GI50 (SK-MEL-5 melanoma): 1620 nM
TGI (SK-MEL-5 melanoma): 3020 nM
GI50 (KM12 colon): 1950 nM
TGI (KM12 colon): 4540 nM
GI50 (NCI/ADR-RES ovarian): 1920 nM
TGI (NCI/ADR-RES ovarian): 6600 nM
GI50 (HCT-15 colon): 1130 nM
TGI (HCT-15 colon): 2730 nM
GI50 (HS 578T breast): 2210 nM
TGI (HS 578T breast): 6230 nM
GI50 (COLO 205 colon): 2030 nM
TGI (COLO 205 colon): 4720 nM
GI50 (OVCAR-5 ovarian): 2010 nM
TGI (OVCAR-5 ovarian): 3930 nM
GI50 (MDA-MB-435): 1890 nM
TGI (MDA-MB-435): 3720 nM
GI50 (MOLT-4 leukemia): 827 nM
TGI (MOLT-4 leukemia): 3350 nM
GI50 (K-562 leukemia): 770 nM
TGI (K-562 leukemia): 3580 nM

Source: PubChem BioAssay (NCI)
